From patent US20070004660A1, “Synergistic Modulation of Flt3 Kinase Using Alkylquinolines and Alkylquinazolines” (priority 2005, published 2007)

Legend:
MV4-11 cells = assay: Annexin V staining (apoptosis) of MV4-11 cells; type: cell-based, human; conditions: Tipifarnib and FLT3 inhibitor Compound A, fixed ratio 4:1, 48 hours
Protocol: After the compound incubations, treated cells were harvested and stained with Annexin V-PE and 7-AAD using the Guava Nexin apoptosis kit according to the protocol in the Biological Activity Measurements section hereafter. Annexin V staining peaks at 60% because cells late in apoptosis begin to fall apart and are considered debris. […] Statistical analysis using the above described method of Chou and Talalay was also performed to determine the synergy of the combination. FIG. 11b depictes the isobolar analysis of the Tipifarnib and FLT3 inhibitor Compound A combination in inducing annexin V staining. […] The magnitude of the synergistic induction of apoptosis of MV4-11 cells by the combination of an FTI and a FLT3 inhibitor could not be predicted by those skilled in the art. […]
Annexin V Staining. To examine the apoptosis of the leukemic MV4-11 cell line, cells were treated with Tipifarnib and/or FLT3 inhibitor Compound A, and Annexin V binding to phosphotidylserine on the outer leaflet of the plasma membrane of apoptotic cells was monitored using the GuavaNexin assay reagent and the Guava personal flow cytometry system (Guava Technologies; Hayward, Calif.). […] All annexin positive cells were considered apoptotic and percent Annexin positive cells was calculated.

Baf3-FLT3 cells = assay: Cell proliferation assay, single agents and FTI/FLT3 inhibitor combinations, Baf3-FLT3; type: cell-based, murine; conditions: with single sub-IC50 dose of FLT3 inhibitor Compound A, 100 nM
Protocol: The cell lines that were tested included those that are dependent on FLT3ITD mutant activity for growth (MV4-11 and Baf3-FLT3ITD), FLT3wt activity for growth (Baf3FLT3) and those that grow independent of FLT3 activity (THP-1). […] Baf3-FLT3 and Baf3-FLT3ITD cell lines were obtained from Dr. Michael Henrich and the Oregon Health Sciences University. The Baf3 FLT3 cell lines were created by stable transfection of parental Baf3 cells (a murine B cell lymphoma line dependent on the cytokine IL-3 for growth) with either wild-type FLT3 or FLT3 containing the ITD insertion in the juxatamembrane domain of the receptor resulting in its constitutive activation. […]
To statistically evaluate the synergy of a FLT3 inhibitor and an FTI in FLT3 dependent cell lines, dosing combinations were evaluated by the method of Chou and Talalay. See Chou T C, Talalay P. (1984) “Quantitative analysis of dose-effect relationships: the combined effects of multiple drugs or enzyme inhibitors.” Adv Enzyme Regul. […] Using this method, multiple FTI and FLT3 combinations were evaluated. […]
Cell proliferation assay for MV4-11, Baf3-ITD, Baf3-FLT3 and THP-1 cells. […] Total cell growth is quantified as the difference in luminescent counts (relative light units, RLU) of cell number at Day 0 compared to total cell number at Day 3 (72 hours of growth and/or compound treatment). […]

MV-4-11 tumor xenografts = assay: In vivo combination study, FLT3 inhibitor Compound B and Tipifarnib, MV-4-11 xenografts
Protocol: The effect of combination treatment of the FLT3 Inhibitor FLT3 inhibitors of Formula I′ and Tipifarnib (Zarnestra™) on the growth of MV-4-11 human AML tumor xenografts in nude mice was tested using FLT3 inhibitor Compound B. The in vivo study was designed to extend the in vitro observations to evaluate the potential for a synergistic anti-tumor effect of FLT3 inhibitor Compound B administered orally together with Tipifarnib to nude mice bearing established MV-4-11 tumor xenografts.

Cn1cncc1C(N)(c1ccc(Cl)cc1)c1ccc2c(c1)c(-c1cccc(Cl)c1)cc(=O)n2C (single isomer, unassigned; (+)) [Tipifarnib, (+)-6-[amino(4-chlorophenyl)(1-methyl-1H-imidazol-5-yl)methyl]-4-(3-chlorophenyl)-1-methyl-2(1H)-quinolinone]
shift of EC50 for induction of annexin V staining by the combination (MV4-11 cells): more than eight-fold
increase in potency of Tipifarnib (Baf3-FLT3 cells): more than 3 fold
effect on tumor volume compared to control (MV-4-11 tumor xenografts; 50 mg/kg po alone, Day 9): not significantly reduced
overt toxicity (MV-4-11 tumor xenografts; 9-day treatment, either agent alone or in combination): No overt toxicity
